Assay results as given in patent US20230365559A1, “NOVEL AMINOPYRIDINES AND THEIR USE IN TREATING CANCER” (priority 2020, published 2023).
Several values for one entry are separate records, joined by “and”; a condition that tells them apart may be missing. Identical values can stand only once.

Legend:
human mTOR = human mTOR (Homo sapiens, UniProt P42345); assay: Inhibition of mTOR kinase activity, HotSpot assay, phosphorylation of 4EPB1; conditions: Inhibition of kinase activity (as IC50) mTOR (nM), 10 μM ATP; mean of two replicates; Table 12
human PI3Kα (p110α/p85α) = human PI3Kα (p110α/p85α) (Homo sapiens, UniProt P42336); assay: Inhibition of PI3Kα kinase activity, ADP-Glo Assay (Reaction Biology); assay type: biochemical; conditions: 10 μM ATP; mean of two replicates; Table 12; read-out: Inhibition of kinase activity (as IC50) PICK
human PI3Kα (p110α/p85α), sequence (P42336 whole entry): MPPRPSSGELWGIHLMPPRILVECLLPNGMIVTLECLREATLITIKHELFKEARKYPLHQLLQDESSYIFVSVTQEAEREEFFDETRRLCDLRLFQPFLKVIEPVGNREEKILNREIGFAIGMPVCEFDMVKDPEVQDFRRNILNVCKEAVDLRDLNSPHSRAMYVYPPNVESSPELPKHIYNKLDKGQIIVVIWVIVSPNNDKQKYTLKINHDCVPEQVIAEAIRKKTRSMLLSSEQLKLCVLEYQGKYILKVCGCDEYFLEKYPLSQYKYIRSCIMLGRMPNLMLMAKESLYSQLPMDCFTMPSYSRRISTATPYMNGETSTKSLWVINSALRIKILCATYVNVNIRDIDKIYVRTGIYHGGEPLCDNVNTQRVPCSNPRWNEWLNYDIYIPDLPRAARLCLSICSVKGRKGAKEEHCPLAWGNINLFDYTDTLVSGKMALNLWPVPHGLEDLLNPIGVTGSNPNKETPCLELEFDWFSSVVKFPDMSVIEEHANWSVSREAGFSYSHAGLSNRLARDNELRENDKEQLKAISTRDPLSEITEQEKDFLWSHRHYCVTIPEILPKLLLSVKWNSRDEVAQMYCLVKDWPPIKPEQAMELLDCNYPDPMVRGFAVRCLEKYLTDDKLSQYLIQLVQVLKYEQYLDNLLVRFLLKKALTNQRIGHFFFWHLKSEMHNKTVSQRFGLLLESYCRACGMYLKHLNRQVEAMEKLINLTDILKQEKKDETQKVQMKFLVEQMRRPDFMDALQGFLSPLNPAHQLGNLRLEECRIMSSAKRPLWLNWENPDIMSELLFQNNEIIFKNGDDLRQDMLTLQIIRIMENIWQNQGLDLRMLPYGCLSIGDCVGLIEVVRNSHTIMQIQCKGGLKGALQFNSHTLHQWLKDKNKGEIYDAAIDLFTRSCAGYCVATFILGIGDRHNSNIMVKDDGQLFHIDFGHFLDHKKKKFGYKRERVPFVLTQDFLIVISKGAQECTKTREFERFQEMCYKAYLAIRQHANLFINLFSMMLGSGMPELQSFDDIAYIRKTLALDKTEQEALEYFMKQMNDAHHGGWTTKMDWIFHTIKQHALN
human PI3Kα (p110α/p85α), sequence (P27986 whole entry partner): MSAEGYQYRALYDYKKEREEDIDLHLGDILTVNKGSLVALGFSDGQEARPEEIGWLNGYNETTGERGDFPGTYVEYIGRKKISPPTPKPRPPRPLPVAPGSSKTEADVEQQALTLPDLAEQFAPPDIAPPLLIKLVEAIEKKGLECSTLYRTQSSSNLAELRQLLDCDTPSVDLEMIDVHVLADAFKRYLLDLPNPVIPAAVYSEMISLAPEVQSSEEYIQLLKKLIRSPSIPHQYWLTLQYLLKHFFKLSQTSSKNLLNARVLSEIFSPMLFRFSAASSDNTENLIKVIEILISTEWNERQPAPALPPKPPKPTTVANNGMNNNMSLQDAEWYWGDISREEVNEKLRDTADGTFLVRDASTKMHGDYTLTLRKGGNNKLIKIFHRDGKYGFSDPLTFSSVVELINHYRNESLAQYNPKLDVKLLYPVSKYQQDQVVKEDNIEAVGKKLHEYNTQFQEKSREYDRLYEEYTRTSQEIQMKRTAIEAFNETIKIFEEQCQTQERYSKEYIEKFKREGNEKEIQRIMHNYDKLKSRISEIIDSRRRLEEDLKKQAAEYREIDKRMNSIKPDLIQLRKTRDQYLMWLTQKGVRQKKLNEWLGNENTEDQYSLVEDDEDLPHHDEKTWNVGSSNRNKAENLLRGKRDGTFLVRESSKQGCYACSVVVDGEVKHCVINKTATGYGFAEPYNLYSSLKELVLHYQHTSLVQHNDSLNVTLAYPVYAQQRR

human DNA-PK = human DNA-PK (Homo sapiens, UniProt P78527); assay: Inhibition of DNA-PKcs kinase activity, HotSpot assay (Reaction Biology), [γ-33P]-ATP phosphorylation of peptide substrate; assay type: biochemical; conditions: 10 μM ATP, 10 μg/ml DNA; mean of two replicates; Table 12; read-out: Inhibition of kinase activity (as IC50) DNA-PK (converted)
UT-SCC-54C cells = assay: Radiosensitisation of UT-SCC-54C HNSCC cells, regrowth (sulforhodamine B) assay, oxic (Table 16); assay type: cell-based, human; conditions: for IC50: Homo sapiens, read-out: IC50; for S50: compound in combination with 3 Gy of radiation, 50% inhibition of regrowth fraction, UT-SCC-54C, oxic

| Structure (SMILES) | IC50 (human mTOR) | IC50 (human PI3Kα (p110α/p85α)) | IC50 (human DNA-PK) | IC50 (UT-SCC-54C cells) | S50 (UT-SCC-54C cells) |
| --- | --- | --- | --- | --- | --- |
| COCCn1c(=O)n(C)c2cnc(Nc3ccc(Cl)cc3C)cc21 [Compound 105, 6-((4-Chloro-2-methylphenyl)amino)-1-(2-methoxyethyl)-3-methyl-1,3-dihydro-2H-imidazo[4,5-c]pyridin-2-one] | 71400 nM | 3.26 µM | 12.1 nM |  |  |
| Cc1cc(Cl)ccc1Nc1cc2c(cn1)n(C)c(=O)n2C1CCOCC1 [Compound 122, 6-((4-Chloro-2-methylphenyl)amino)-3-methyl-1-(tetrahydro-2H-pyran-4-yl)-1,3-dihydro-2H-imidazo[4,5-c]pyridin-2-one] | 46600 nM and 56100 nM | 2.53 µM and 5.53 µM |  | > 10 µM | 0.38 µM |
| Cc1ccc(S(C)(=O)=O)cc1Nc1cc2c(cn1)n(C)c(=O)n2C1CCOCC1 [Compound 123, 3-Methyl-6-((2-methyl-5-(methylsulfonyl)phenyl)amino)-1-(tetrahydro-2H-pyran-4-yl)-1,3-dihydro-2H-imidazo[4,5-c]pyridin-2-one] | > 100000 nM | 0.678 µM | 0.13 nM | > 10 µM | 0.74 µM |
| Cc1nc2ccc(Nc3cc4c(cn3)n(C)c(=O)n4C3CCOCC3)cc2o1 [Compound 128, 3-Methyl-6-((2-methylbenzo[d]oxazol-6-yl)amino)-1-(tetrahydro-2H-pyran-4-yl)-1,3-dihydro-2H-imidazo[4,5-c]pyridin-2-one] | > 100000 nM | > 10 µM | 1420 nM |  |  |
| Cc1cc2c(cc1Nc1cc3c(cn1)n(C)c(=O)n3C1CCOCC1)OCO2 [Compound 130, 3-Methyl-6-((6-methylbenzo[d][1,3]dioxol-5-yl)amino)-1-(tetrahydro-2H-pyran-4-yl)-1,3-dihydro-2H-imidazo[4,5-c]pyridin-2-one] | 10800 nM | 2.53 µM | 3.05 nM | > 10 µM | 0.50 µM |
| Cc1nc2cc(Nc3cc4c(cn3)n(C)c(=O)n4C3CCOCC3)c(C)cc2o1 [Compound 131, 6-((2,6-Dimethylbenzo[d]oxazol-5-yl)amino)-3-methyl-1-(tetrahydro-2H-pyran-4-yl)-1,3-dihydro-2H-imidazo[4,5-c]pyridin-2-one] | 13400 nM | 11 µM | 47.7 nM | > 10 µM | 4.8 µM |
| Cc1cc2ncc(C(=O)O)n2cc1Nc1cc2c(cn1)n(C)c(=O)n2C1CCOCC1 [Compound 136, 7-Methyl-6-((3-methyl-2-oxo-1-(tetrahydro-2H-pyran-4-yl)-2,3-dihydro-1H-imidazo[4,5-c]pyridin-6-yl)amino)imidazo[1,2-a]pyridine-3-carboxylic acid] | 19600 nM | 0.151 µM | 3.6 nM |  |  |
| Cc1cc(Cl)ccc1Nc1cc2c(cn1)n(C)c(=O)n2CCC1CCOCC1 [Compound 147, 6-((4-Chloro-2-methylphenyl)amino)-3-methyl-1-(2-(tetrahydro-2H-pyran-4-yl)ethyl)-1,3-dihydro-2H-imidazo[4,5-c]pyridin-2-one] | 7900 nM | 0.49 µM | 11 nM | > 10 µM | 0.97 µM |
| COC1CCC(n2c(=O)n(C)c3cnc(Nc4ccc(Cl)cc4C)cc32)CC1 (stereo not shown) [Compound 173, 6-((4-Chloro-2-methylphenyl)amino)-1-(4-methoxycyclohexyl)-3-methyl-1,3-dihydro-2H-imidazo[4,5-c]pyridin-2-one] | 27500 nM | 2.17 µM | 0.64 nM | > 10 µM | 0.85 µM |
| COc1ccc(-n2c(=O)n(C)c3cnc(Nc4cc(S(C)(=O)=O)ccc4C)cc32)cc1 [Compound 197, 1-(4-Methoxyphenyl)-3-methyl-6-((2-methyl-5-(methylsulfonyl)phenyl)amino)-1,3-dihydro-2H-imidazo[4,5-c]pyridin-2-one] | 33400 nM | 0.033 µM | 0.09 nM |  |  |
| COc1ccc(-n2c(=O)n(C)c3cnc(Nc4ccc(O)cc4C)cc32)cc1 [Compound 200, 6-((4-Hydroxy-2-methylphenyl)amino)-1-(4-methoxyphenyl)-3-methyl-1,3-dihydro-2H-imidazo[4,5-c]pyridin-2-one] | 19500 nM | 0.264 µM | < 0.05 nM | > 10 µM | 0.31 µM |
| COc1cc(C)c(Nc2cc3c(cn2)n(C)c(=O)n3C2CCOCC2)cc1OC [Compound 216, 6-((4,5-Dimethoxy-2-methylphenyl)amino)-3-methyl-1-(tetrahydro-2H-pyran-4-yl)-1,3-dihydro-2H-imidazo[4,5-c]pyridin-2-one] | 42700 nM | 4.62 µM | 390 nM | > 10 µM | 7.4 µM |
| Cc1cc(Cl)cnc1Nc1cc2c(cn1)n(C)c(=O)n2C1CCOCC1 [Compound 217, 6-((5-Chloro-3-methylpyridin-2-yl)amino)-3-methyl-1-(tetrahydro-2H-pyran-4-yl)-1,3-dihydro-2H-imidazo[4,5-c]pyridin-2-one] | 76300 nM | 33.1 µM | 52 nM | > 10 µM | 3.9 µM |
| Cc1cc(Cl)ncc1Nc1cc2c(cn1)n(C)c(=O)n2C1CCOCC1 [Compound 218, 6-((6-Chloro-4-methylpyridin-3-yl)amino)-3-methyl-1-(tetrahydro-2H-pyran-4-yl)-1,3-dihydro-2H-imidazo[4,5-c]pyridin-2-one] | 68400 nM | 14.2 µM | 94 nM | > 10 µM | 3.1 µM |
| Cc1nc(Cl)ccc1Nc1cc2c(cn1)n(C)c(=O)n2C1CCOCC1 [Compound 219, 6-((6-Chloro-2-methylpyridin-3-yl)amino)-3-methyl-1-(tetrahydro-2H-pyran-4-yl)-1,3-dihydro-2H-imidazo[4,5-c]pyridin-2-one] | > 100000 nM | 20.8 µM | 270 nM |  |  |
| COc1ccc(Nc2cc3c(cn2)n(C)c(=O)n3C2CCOCC2)c(C)n1 [Compound 221, 6-((6-Methoxy-2-methylpyridin-3-yl)amino)-3-methyl-1-(tetrahydro-2H-pyran-4-yl)-1,3-dihydro-2H-imidazo[4,5-c]pyridin-2-one] | > 100000 nM | 9.36 µM | 441 nM |  |  |
| COc1ccc(-c2ccc(Nc3cc4c(cn3)n(C)c(=O)n4C3CCOCC3)cc2)cn1 [Compound 223, 6-((4-(6-Methoxypyridin-3-yl)phenyl)amino)-3-methyl-1-(tetrahydro-2H-pyran-4-yl)-1,3-dihydro-2H-imidazo[4,5-c]pyridin-2-one] | 41200 nM | 11.8 µM | 3940 nM |  |  |
| COc1ccc(Nc2cc3c(cn2)n(C)c(=O)n3C2CCN(C(=O)OCc3cnc([N+](=O)[O-])n3C)CC2)c(C)c1 [Compound 252, (1-Methyl-2-nitro-1H-imidazol-5-yl)methyl 4-(6-((4-methoxy-2-methylphenyl)amino)-3-methyl-2-oxo-2,3-dihydro-1H-imidazo[4,5-c]pyridin-1-yl)piperidine-1-carboxylate] | 15600 nM | 0.74 µM | 104 nM |  |  |
| COc1ccc(Nc2cc3c(cn2)n(C)c(=O)n3C2CCC(NC(=O)OCc3cnc([N+](=O)[O-])n3C)CC2)c(C)c1 (stereo not shown) [Compound 253, (1-Methyl-2-nitro-1H-imidazol-5-yl)methyl (4-(6-((4-methoxy-2-methylphenyl)amino)-3-methyl-2-oxo-2,3-dihydro-1H-imidazo[4,5-c]pyridin-1-yl)cyclohexyl)carbamate] | 11400 nM | 0.296 µM | 58 nM |  |  |
